Data set [1] has as its system C57BLKS db/db mice. Briefly: Body weight gain, blood sugar and glycosylated hemoglobin in diabetic db/db mice. Conditions: diabetic db/db mice vs. vehicle treated controls, 6 months. From the text: (§1) The C57BLKS db/db mice is a rodent model of type II diabetes mellitus. A LepR^db (db) mutation on chromosome 4 (G→T point mutation) has been identified in the leptin receptor gene. This mutation generates a new donor splice site, leading to prematurely termination of the intracellular domain of leptin receptor and lack of leptin signal transduction. C57BLKS db/db strain is more susceptible to the development of diabetic nephropathy than the C57BL/6J db/db strain. Animals are characterized by obesity, insulin resistance, diabetes and diabetic nephropathy (DN). […] Pathologic changes include mesangial matrix expansion (>50% increase in the majority of glomeruli) and GBM thickening >25%, absence of GBM electron dense material by EM, arteriolar hyalinosis (any degree) and tubulo-interstitial fibrosis.
Inhibitor was given for 6 months, while the control diabetic mice were given vehicle alone (n=8 per group). Blood samples were drawn for analysis of glucose and glycosylated hemoglobin (HbA1c) monthly. The urine samples were collected monthly and albumin/creatinine ratio was determined by enzyme linked immunosorbent assays (Exocell Inc, PA, USA). Glomerular filtration rate (GFR) was determined using FITC-inulin clearance based on plasma elimination rate following single bolus intravenous injection.
(§2) Cyclooxygenase-1 (COX-1) is also abundantly expressed in the kidney, however its role in health and disease remains poorly defined. […] Diabetic mice were provide the COX-1 inhibitor for 6 months, while control diabetic mice given vehicle alone. […] Glomerular filtration rate was also determined using FITC-inulin clearance.

Data set [2] concerns C57BLKS db/db mice. Description: Kidney histopathology (mesangial expansion) in diabetic db/db mice. In kind it is in vivo, mouse. The settings on record: treated vs. untreated (severe mesangial expansion in untreated).
From the text: as §1, §2

The source of these data is patent US20050143356A1, “Selective inhibition of cyclooxygenase 1 in the treatment of diabetic nephropathy” (Vanderbilt University, priority 2003, published 2005).

In the case of `COc1ccc(-n2nc(C(F)(F)F)cc2-c2ccc(Cl)cc2)cc1` [SC8560], in data set [1], the “effect on Hb1C” value is reported as “did not affect”, the “effect on blood sugar” value was “did not affect” and the “effect on body weight gain” value was “did not affect”. Besides, in data set [2], the “mesangial expansion (histopathology)” value was “less pronounced”.
